Test results: US9591855B2, “Diindol-3-ylmethanes as potent non-toxic antifouling compounds” (Hong Kong University of Science and Technology, priority 2014, dated 2017)
Where two headings read alike, the source gives them in different places. Values belong to the compound of their own block, whether it stands above or below them.

Columns and labels:
[1] = Larval settlement bioassay, bryozoan larvae; format: in vivo, Bugula neritina
Experimental: (§1) Adult colonies of B. neritina were collected from the floating rafts at a fish farm in Yung SHU O, Hong Kong (22° 24′ N., 114° 21′ E.) and maintained in flow-through sweater for <7 days before use. The larvae were released under certain conditions described in Maki et al. (1989). Under the inducement of a bright artificial light for 20-30 minutes, the adult B. neritina placed in glass tank filled with 0.45 μm filtered seawater released their larvae, which were quickly able to attach and metamorphose. A good number of actively swimming larvae were obtained and immediately used for the anti-larval bioassay.
(§2) There were three replicate wells per solution.

Bugula neritina larvae [2] = test: Larval settlement bioassay, bryozoan larvae; format: in vivo; settings: Bugula neritina, 48 h, read-out: EC50 (concentration in which 50% of larval population was prevented from settling)
Experimental: as §1, §2

[3] = test system: cyprids of Amphibalanus amphitrite; test: Recovery (reversibility) bioassay on cyprids; format: in vivo
Experimental: Cyprids were firstly exposed to the concentrations of DIM (1) (25.39 μM) and DIM-Ph-4-OH (8) (73.93 μM) that inhibited 100% of cyprid settlement of Amphibalanus amphitrite. After 24 hr of exposure, the cyprids were transferred to fresh seawater (FSW) and kept in incubator for 48 hr. In the control group, cyprids were kept in FSW without biocides during the course of the experiment. Values presented here were mean±SD (n=3) of the settled and unsettled (swimming) living larvae.
Reversibility tests—Cyprids were exposed and in the laboratory, recovery bioassay was designed and conducted to determine whether antifouling compounds 3,3′-diindolylmethane (DIM) and 4-hydroxyphenyl-3,3′-diindolylmethane (DIM-Ph-4-OH) had any detrimental effect on larvae. […]

[4] = test system: marine fouling organisms (biofoulers); test: Field test of painted PVC panels at Sai Kung Pier; format: in vivo
From the text: Photographs show the surface condition of tested panels after submersion in sea water for 5 months. (A) Test panel No. 1, negative control panel coated with the basal paint; […] Asterisks above the bars indicate significant differences from the negative control in Tukey's test (p<0.05, One-way ANOVA). […] (2006) and Xu et al. (2010) with minor modifications. Briefly, the plates were coated with the mixed paints containing the basal ingredients as follows: 0.4, 0.8 and 1.2 g of DIM or Sea-Nine 211TM, 2.5 g of polyacrylic resin, 1.0 g of gum resin, 1.0 g of calcium carbonate, 2.0 g of titanium oxide, 0.2 g of bentonite, and 10.0 ml of xylene. After stirring the paint for 4-5 hr, it was immediately painted onto the sandblasted PVC panels. The painted plates were allowed to dry in dark. […] Calculation of Area Covered by Biofoulers-The condition of the painted surface of each panel was monitored and photographed weekly over a period of 5 months. All the images were analyzed with the ImageJ program (available as a public domain Java image processing software provided by NIH Image). […] Subsequently, the total area covered by biofoulers was calculated and was then divided by the total area of the panel surface to give rise to the percent coverage of biofoulers on each panel.

[5] = Preliminary hydrolysis experiment in natural seawater; format: physicochemical; settings: after 4 d incubation
primary mouse neurons = test: Cytotoxicity to primary mouse neurons; format: cell-based
[6] = test system: Balanus amphitrite cypris larvae; settings: for antifouling activity in comparison with the butenolide: compared with butenolide; for EC50: read-out: EC50 (concentration in which 50% of larval population was inhibited to settle), 28° C., mean ± SD (n = 3); for EC50 / LC50: Balanus amphitrite cypris larvae, 48 h; for LC50: read-out: LC50 (concentration in which 50% of the test larvae population was killed); for antifouling activity against B. amphitrite larval settlement (in words): in vivo
Experimental: (§3) Newly transformed cyprids were collected for the experiment.
(§4) The experiment for evaluating inhibitory effect of the related compounds on B. amphitrite and B. neritina larvae was conducted in 24-well polystyrene plates (Nunc, Naperville, Ill., Calif., USA). A stock solution of 50 mg ml^−1 of each compound was prepared in DMSO, diluted 1000 times with fresh seawater (FSW) to 50 μg ml^−1, and further diluted by a serial 2-fold dilution to obtain test solutions of seven concentrations ranging from 25 to 0.39 μg mL^−1. Sixteen to twenty larvae were then added to each well with one milliliter of the test solution. There were three replicate wells per solution. […] The 24-well plates were maintained in the dark for 48 h at 28° C. The number of settled larvae (attached and metamorphosed), swimming and dead larvae were counted under a dissecting microscope at 48 hr. The number of the settled larvae was expressed as a percentage of the total number of larvae per well. The mortality rate was determined as the percentage of the dead or missing larvae over the total number of larvae. Each bioassay experiment had three biological replicates and was repeated three times using three different batches of larvae.
(§5) The data were analyzed by one-way analysis of variance (ANOVA) to detect significant differences in larval settlement with regard to the concentration used (p<0.05).
(§6) In the anti-larval settlement assay, the EC50 for percentage of attachment and LC50 for larval mortality were calculated by using the software Probit. Differences in all tests between treatments and controls were determined by one-way ANOVA followed by Tukey's test.

in vivo = settings: Balanus (=Amphibalanus) amphitrite (barnacle, cypris larvae)
Experimental: as §3, §4, §5, §6

[7] = test system: Balanus amphitrite cypris larvae; settings: positive control concentration, Li et al., 2013; cited from earlier work
Bugula neritina larvae [8] = settings: positive control concentration, Li et al., 2013; cited from earlier work
[9] = Bugula neritina (bryozoan, in vivo, other: immersion of larvae in test solution in seawater), Bugula neritina larvae, 48 h, read-out: LC50 (concentration in which 50% of the test larvae population was killed)
[10] = other: immersion of larvae in test solution in seawater
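Wherever antifouling activity against B. amphitrite larval settlement (in words) is given: larvae held in 24-well plates with compound in seawater, dark, 48 h, settled larvae (attached plus metamorphosed) and dead or missing larvae counted microscopically as percent of total per well.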
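Wherever antifouling activity in comparison with the butenolide is given: larvae held in 24-well plates with compound in seawater, dark, 48 h, settled larvae (attached plus metamorphosed) and dead or missing larvae counted microscopically as percent of total per well.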
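Wherever inhibition of cyprid settlement is given: larvae held in 24-well plates with compound in seawater, dark, 48 h, settled larvae (attached plus metamorphosed) and dead or missing larvae counted microscopically as percent of total per well.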

Compound: c1ccc2c(Cc3c[nH]c4ccccc34)c[nH]c2c1 [Compound 1, di(1H-indol-3-yl)methane]
LC50 at 48 h ([1]; Bugula neritina (bryozoan, larvae), in vivo): > 203 µM
EC50 (Bugula neritina larvae [2]): 2.54 µM
treated cyprids that retained their ability of normal attachment and metamorphosis ([3]; 24 hr exposure at 25.39 μM (50 μg mL^−1), then 48 hr in FSW): 93%
biofouling on surface of treated PVC panels ([4]; 10% and 15% (w/w) in paint, submerged in seawater 5 months): few marine organisms observed
period over which settlement of marine fouling organisms was deterred in field test ([4]; field test): ≥ 3 months
degradation in natural seawater [5]: ~90%
cytotoxicity to primary mouse neurons (primary mouse neurons): non-cytotoxic
inhibition of cyprid settlement ([6]; 25.39 μM): 100%
antifouling activity in comparison with the butenolide [6]: comparable antifouling activity
EC50 [6]: 3.27 ± 0.53 µM
LC50 at 48 h (in vivo): > 203 µM

Compound: CC(c1c[nH]c2ccccc12)c1c[nH]c2ccccc12 [Compound 2, vibrindole A]
EC50 [6]: 5.42 ± 0.19 µM
LC50 [6]: > 192 µM

Compound: c1ccc2[nH]ccc2c1 [Indole, indole, reference compound]
antifouling activity against B. amphitrite larval settlement (in words) [6]: weak antifouling activity
EC50 [6]: 17.5 ± 0.6 µM
EC50 ([6]; listed as indole): 17.5 µM
LC50 at 48 h (in vivo): 85.4 µM

Compound: OCC(O)C(c1c[nH]c2ccccc12)c1c[nH]c2ccccc12 (stereo not shown) [Compound 3, 3,3′-di-1H-indol-3-yl-1,2-propandiol]
antifouling activity against B. amphitrite larval settlement (in words) [6]: least active compound
EC50 [6]: 18.6 ± 0.79 µM
LC50 [6]: > 327 µM

Compound: Oc1ccc(C(c2c[nH]c3ccccc23)c2c[nH]c3ccccc23)cc1 [Compound 8, 4-(di(1H-indol-3-yl)methyl) phenol]
LC50 at 48 h [1, 9]: > 148 µM
EC50 (Bugula neritina larvae [2]): 1.25 µM
treated cyprids that retained their ability of normal attachment and metamorphosis ([3]; Amphibalanus amphitrite, in vivo, 73.93 μM): 95%
cytotoxicity to primary mouse neurons (primary mouse neurons): non-cytotoxic
inhibition of cyprid settlement ([6]; 73.93 μM): 100%
antifouling activity in comparison with the butenolide [6]: comparable antifouling activity
antifouling activity against B. amphitrite larval settlement (in words) [6]: best antifoulant
EC50 [6]: 1.86 ± 0.24 µM
LC50 at 48 h (in vivo; [10]): > 148 µM

degradation in natural seawater [5]: no obvious degradation
Compound: CCCCCCCCn1sc(Cl)c(Cl)c1=O [Sea-Nine 211™, 4,5-dichloro-2-N-octyl-3(2H)-isothiazolone]
EC50 value for B. amphitrite [7]: 1.90 µg/mL
EC50 value for B. neritina (Bugula neritina larvae [8]): 2.50 µg/mL

Compound: c1ccc2c(C(c3c[nH]c4ccccc34)c3c[nH]c4ccccc34)c[nH]c2c1 [Compound 4, tri(1H-indol-3-yl)methane]
EC50 [6]: 5.81 ± 0.53 µM
LC50 at 48 h (in vivo; [10]): > 138 µM

Compound: CC(=O)Oc1ccc(C(c2c[nH]c3ccccc23)c2c[nH]c3ccccc23)cc1 [Compound 9, 4-[di(1H-indol-3-yl)methyl]phenyl acetate]
LC50 at 48 h [1, 9]: > 132 µM
EC50 (Bugula neritina larvae [2]): 4.5 ± 0.42 µM
antifouling activity against B. amphitrite larval settlement (in words) [6]: not as high as that of DIM-Ph-4-OH (8)
EC50 [6]: 4.34 ± 0.32 µM
LC50 at 48 h (in vivo; [10]): > 132 µM

Compound: arsindoline A [Compound 6]
EC50 [6]: 4.64 ± 0.59 µM

Compound: O=C(c1c[nH]c2ccccc12)C(c1c[nH]c2ccccc12)c1c[nH]c2ccccc12 [Compound 5, 1,2,2-tri(1H-indol-3-yl) ethanone]
EC50 [6]: 4.19 ± 0.15 µM
LC50 at 48 h (in vivo; [10]): > 128 µM

Compound: c1ccc(C(c2c[nH]c3ccccc23)c2c[nH]c3ccccc23)cc1 [Compound 7, 3,3′-(phenylmethylene) bis-1H-indole]
antifouling activity in comparison with the butenolide [6]: comparable antifouling activity
antifouling activity against B. amphitrite larval settlement (in words) [6]: weaker anti-larval settlement activity than DIM-Ph-4-OH (8)
EC50 [6]: 3.57 ± 0.12 µM
LC50 at 48 h (in vivo; [10]): > 155 µM
